Series [1] concerns promyelocytic leukemia HL-60. The experiment in a line: MTT cytotoxicity assay, HL-60. It counts as cell-based, human. To be noted: for IC50: MTT, 48 h incubation, mean ± SEM; for HUVEC/HL-60 IC50 ratio: normal HUVEC vs HL-60. The method, then:
(§1) Potential biological activity of all four lepidilines A–D (1a–1d), as well as their 4,5-diphenyl analogues 6a[PF6], 6c[PF6], and 6d[PF6] (as hexafluorophosphate salts) and a series of imidazole-2-thiones 7 and 8 obtained therefrom, was evaluated in vitro against two human cancer cell lines: promyelocytic leukemia HL-60 and breast cancer adenocarcinoma MCF-7. Selected analogues were also tested against human umbilical vein endothelial cells (HUVECs) using the MTT cytotoxicity assay. Concentration–response analysis was performed to determine drug concentrations required to inhibit the growth of cells by 50% (IC50) after 48 h of incubation.
(§2) Human promyelocytic leukemia (HL-60) and human breast cancer adenocarcinoma (MCF-7) cell lines were obtained from the European Collection of Cell Cultures, while HUVECs were purchased from the American Type Culture Collection. HL-60 cells were cultured in RPMI 1640 plus GlutaMax I medium (Gibco/Life Technologies, Carlsbad, CA, USA). MCF-7 cells were maintained in minimum essential medium Eagle (Sigma-Aldrich, St. Louis, MO, USA) supplemented with 2 mM glutamine and Men nonessential amino acid solution (Sigma-Aldrich). Both media were supplemented with 10% heat-inactivated fetal bovine serum (Biological Industries, Beit-Haemek, Israel) and antibiotics (100 U/mL penicillin and 100 μg/mL streptomycin) (Sigma-Aldrich). HUVEC cells were grown in EGM-2 endothelial medium BulletKit (Lonza, Basel, Switzerland). Cells were maintained at 37 °C in a 5% CO2 atmosphere and were grown until 80% confluent.
(§3) The tested compounds were dissolved in sterile dimethyl sulfoxide (DMSO) and further diluted with culture medium. The final concentration of DMSO in cell cultures was less than 0.1% v/v. Controls without and with 0.1% DMSO were performed in each experiment.
(§4) The MTT assay was performed according to the known procedure.[30] The cells were incubated with the analogues for 48 h. The absorbance of the blue formazan product was measured at 560 nm using a FlexStation 3 multi-mode microplate reader (Molecular Devices, LLC, CA, USA) and compared with control (untreated cells). All experiments were performed in triplicate.
(Formazan colour is commonly taken as a measure of viable cells.)

Series [2] deals with human umbilical vein endothelial cells (HUVECs). The experiment in a line: MTT cytotoxicity assay, HUVEC. It counts as cell-based. The conditions noted are these: 48 h incubation, normal cells, mean ± SEM. The method, then:
as §1, §2, §3, §4

The subject of series [3] is breast cancer adenocarcinoma MCF-7. The experiment in a line: MTT cytotoxicity assay, MCF-7. It counts as cell-based, human. To be noted: mean ± SEM. Here is the method: as §1, §2, §3, §4
Series [4] concerns eight human cancer cell lines. Further details: method as in PMID 12932133. The conditions noted are these: inactive against all those cell lines; cited from earlier work.
The subject of series [5] is pancreatic adenocarcinoma PACA2. Also noted: method as in PMID 12932133. The conditions noted are these: cited from earlier work.
The subject of another series is breast carcinoma MDA-231. Further details: method as in PMID 12932133. To be noted: cited from earlier work.
[6] abbreviates: Homo sapiens, MCF7, 48 h incubation.

Structures are written as SMILES. Structures can show the parent of a compound that is named as a salt.

For `COc1cccc(Cn2c(C)c(C)[n+](Cc3ccccc3)c2C)c1.[Cl-]` [1d, 1-Benzyl-3-(3-methoxybenzyl)-2,4,5-trimethylimidazolium chloride], the melting point – broadly, the temperature, or range, at which the solid turns liquid – lay within 214 to 216 °C. Half-maximal inhibition in series [1] (Homo sapiens, HL-60, 48 h) (IC50) was put at 1.1 ± 0.1 µM. The “fold more cytotoxic for leukemia (HL-60) than for breast cancer (MCF-7) cells” value in series [1] (MCF-7 vs HL-60) was “over 100 fold”. Further, the “HUVEC/HL-60 IC50 ratio” value in series [1] is “over 100”. Moreover, the IC50 (in general, the concentration needed to halve the response being measured) in series [2] was above 100 µM. In series [3] (setting [6]), this molecule displayed a half-maximal inhibitory concentration (IC50) above 100 µM.

In turn, `COc1cccc(C[n+]2cn(Cc3ccccc3)c(-c3ccccc3)c2-c2ccccc2)c1.[Br-]` [6c[Br], 1-Benzyl-3-(3-methoxybenzyl)-4,5-diphenylimidazolium bromide] came in with a melting point of 149 to 151 °C.

On to `Cc1c(C)n(Cc2ccccc2)c(=S)n1Cc1ccccc1` [7a, 1,3-Dibenzyl-4,5-dimethylimidazole-2-thione], for which the melting point fell in the range of 183 to 185 °C. For the same molecule, in series [1] (Homo sapiens, HL-60, 48 h), the IC50 was above 100 µM. In addition, in series [3] (setting [6]), the IC50 is above 100 µM.

`COc1cccc(C[n+]2c(-c3ccccc3)c(-c3ccccc3)n(Cc3ccccc3)c2C)c1` (as salt: phosphate) [6d[PF6], 1-Benzyl-3-(3-methoxybenzyl)-2-methyl-4,5-diphenylimidazolium hexafluorophosphate]: the melting point was in the range of 175 to 177 °C.

Take `c1ccc(Cn2c[n+](Cc3ccccc3)c(-c3ccccc3)c2-c2ccccc2)cc1` (as salt: phosphate) [6a[PF6], 1,3-Dibenzyl-4,5-diphenylimidazolium hexafluorophosphate]: the melting point was 129 to 131 °C.

For `c1ccc(Cn2c[n+](Cc3ccccc3)c(-c3ccccc3)c2-c2ccccc2)cc1` [6a[PF6], 1,3-Dibenzyl-4,5-diphenylimidazolium hexafluorophosphate], the IC50 in series [1] (Homo sapiens, HL-60, 48 h) is 1.2 ± 0.1 µM; in series [3] (setting [6]), 8.2 ± 0.2 µM.

Take `COc1cccc(C[n+]2c(-c3ccccc3)c(-c3ccccc3)n(Cc3ccccc3)c2C)c1` [6d[PF6], 1-Benzyl-3-(3-methoxybenzyl)-2-methyl-4,5-diphenylimidazolium hexafluorophosphate]: the IC50 in series [1] (Homo sapiens, HL-60, 48 h) was found to be 1.2 ± 0.1 µM; in series [3] (setting [6]) it was 6.5 ± 0.2 µM.

`COc1cccc(Cn2c(-c3ccccc3)c(-c3ccccc3)n(Cc3ccccc3)c2=S)c1` [8c, 1-(3′-Methoxybenzyl)-3-benzyl-4,5-diphenylimidazole-2-thione] returned a melting point of 52 to 55 °C. In series [1] (Homo sapiens, HL-60, 48 h), the half-maximal inhibitory concentration (IC50) came out at 55 ± 5 µM. Moreover, in series [3] (setting [6]), the IC50 was above 100 µM.

For `Cc1c(C)[n+](Cc2ccccc2)cn1Cc1ccccc1` [1a, 1,3-Dibenzyl-4,5-dimethylimidazolium chloride], the concentration for half-maximal inhibition (IC50) in series [1] (Homo sapiens, HL-60, 48 h) was 32.3 ± 3.5 µM; in series [2], above 100 µM; in series [4], above 10 µM; in series [3] (setting [6]), above 100 µM.

On to `COc1cccc(Cn2c[n+](Cc3ccccc3)c(C)c2C)c1.[Cl-]` [1c, 1-Benzyl-3-(3-methoxybenzyl)-4,5-dimethylimidazolium chloride], for which the melting point lay within 94 to 96 °C. In series [1] (Homo sapiens, HL-60, 48 h), this molecule returned a 50% inhibitory concentration (IC50) of 27.7 ± 2.5 µM. Also, the IC50 in series [2] was above 100 µM. Also, the 50% inhibitory concentration (IC50) in series [3] (setting [6]) stood at 75 ± 5 µM.

The molecule `COc1cccc(C[n+]2cn(Cc3ccccc3)c(C)c2C)c1` (as salt: phosphate) [1c[PF6], 1-Benzyl-3-(3-methoxybenzyl)-4,5-dimethylimidazolium hexafluorophosphate] showed a melting point of 102 to 104 °C.

Molecule `COc1cccc(C[n+]2cn(Cc3ccccc3)c(-c3ccccc3)c2-c2ccccc2)c1` (as salt: phosphate) [6c[PF6], 1-Benzyl-3-(3-methoxybenzyl)-4,5-diphenylimidazolium hexafluorophosphate] came in with a melting point of 78 to 81 °C.

Regarding `COc1cccc2c1C(=O)c1c(O)c3c(c(O)c1C2=O)C[C@@](O)(C(=O)CO)C[C@@H]3O[C@H]1C[C@H](N)[C@H](O)[C@H](C)O1` [DXR, doxorubicin, reference compound], the “fold more cytotoxic than lepidiline D” value in series [1] (DXR vs lepidiline D, HL-60) was determined as 10 fold. Moreover, the half-maximal inhibitory concentration (IC50) in series [1] (Homo sapiens, HL-60, 48 h) amounted to 0.12 ± 0.01 µM; in series [2] it was 1.4 ± 0.1 µM; in series [3] (setting [6]), 0.9 ± 0.1 µM. In addition, in series [1], the “HUVEC/HL-60 IC50 ratio” value was “about 10”.

Consider `COc1cccc(Cn2c(C)c(C)n(Cc3ccccc3)c2=S)c1` [7c, 1-(3′-Methoxybenzyl)-3-benzyl-4,5-dimethylimidazole-2-thione], for which the IC50 is 20.2 ± 1.9 µM in series [1] (Homo sapiens, HL-60, 48 h) and above 100 µM in series [3] (setting [6]).

In turn, `S=c1n(Cc2ccccc2)c(-c2ccccc2)c(-c2ccccc2)n1Cc1ccccc1` [8a, 1,3-Dibenzyl-4,5-diphenylimidazole-2-thione] had a melting point of 180 to 182 °C. In addition, it took 8.1 ± 0.3 µM to reach half-maximal inhibition in series [1] (Homo sapiens, HL-60, 48 h) (IC50). The molecule also showed a half-inhibitory concentration (IC50) in series [3] (setting [6]) above 100 µM.

On to `c1c[n+](OC23CC4CC(CC(C4)C2)C3)cn1OC12CC3CC(CC(C3)C1)C2` [compound 10], for which the IC50 in series [1] (Homo sapiens, HL-60, 48 h) came out at 0.3 ± 0.1 µM; in series [2], 9.1 ± 0.3 µM; in series [3] (setting [6]) it was 4.5 ± 0.1 µM.

Regarding `COc1cccc(C[n+]2cn(Cc3ccccc3)c(-c3ccccc3)c2-c2ccccc2)c1` [6c[PF6], 1-Benzyl-3-(3-methoxybenzyl)-4,5-diphenylimidazolium hexafluorophosphate], the IC50 worked out at 1.2 ± 0.2 µM in series [1] (Homo sapiens, HL-60, 48 h); 8.8 ± 0.1 µM in series [2]; 7.9 ± 0.3 µM in series [3] (setting [6]).

The molecule `Cc1c(C)[n+](Cc2ccccc2)c(C)n1Cc1ccccc1.[Cl-]` [1b, 1,3-Dibenzyl-2,4,5-trimethylimidazolium chloride] registered a melting point of 228 to 229 °C. Also, it took 3.8 ± 0.2 µM to reach half-maximal inhibition in series [1] (Homo sapiens, HL-60, 48 h) (IC50). Further, the “IC50 PACA2” value in series [5] is 1.38 µg/mL. Also, the IC50 in series [5] (converted from μg/mL) was 4.2 µM. The IC50 in series [2] was above 100 µM. Further, the “IC50 MDA-231” value with breast carcinoma MDA-231 is 1.66 µg/mL. Besides, the concentration for half-maximal inhibition (IC50) with breast carcinoma MDA-231 (converted from μg/mL) is 5.1 µM. This molecule returned an IC50 in series [3] (setting [6]) above 100 µM.

In the case of `COc1cccc(C[n+]2cn(Cc3ccccc3)c(C)c2C)c1` [1c[PF6], 1-Benzyl-3-(3-methoxybenzyl)-4,5-dimethylimidazolium hexafluorophosphate], the 50% inhibitory concentration (IC50) is 19.9 ± 0.2 µM in series [1] (Homo sapiens, HL-60, 48 h) and 69.9 ± 0.2 µM in series [3] (setting [6]).

Turning to `c1c[n+](C23CC4CC(CC(C4)C2)C3)cn1C12CC3CC(CC(C3)C1)C2` [compound 9, 1,3-diadamantylimidazolium bromide], the concentration for half-maximal inhibition (IC50) in series [1] (Homo sapiens, HL-60, 48 h) worked out at 1.8 ± 0.1 µM; in series [3] (setting [6]), 51.5 ± 1.5 µM.

As to `Cc1c(C)[n+](Cc2ccccc2)cn1Cc1ccccc1` [1a[PF6]] [1,3-Dibenzyl-4,5-dimethylimidazolium hexafluorophosphate], the values for the IC50 in series [1] and in series [3] (48 h incubation) were 32 ± 2 µM and above 100 µM, respectively.
